Counter-ions that a name gives are not always drawn.
Assays:
[1] = biological target: Angiotensin I Converting Enzyme (ACE) (Homo sapiens, UniProt P12821); experiment: Inhibition of Angiotensin I Converting Enzyme (ACE), HHL substrate, hippuric acid colorimetry (modified Cushman method); format: biochemical; details: 37°C for one hour, pH 8.3, read-out: Inhibitory Activity on ACE (%); for inhibition at 1 µM: Concentration 1 μM; for inhibition at 10 µM: Concentration 10 μM
Method: Inhibitions of Angiotensin I Converting Enzyme (ACE) by the Compounds of this Invention. The experiment was conducted in accordance with a modification of the method described by Cushman et al. [Biochemical Pharmacology, Vol. 20, 1637 (1971)]. That is, using hippuryl-L-histidyl-L-leucine (HHL) as the substrate, the ACE inhibitory activity was determined in terms of percent inhibition of the amount of hippuric acid produced by ACE when the present compound was added. A solution of the compound of the present invention dissolved in a 0.02 to 0.5% dimethyl sulfoxide-1 00 mM potassium phosphate buffer solution (pH 8.3, containing 300 mM sodium chloride) was added to 100 µl of ACE (protein concentration, 20 mg/ml) and 100 µl of -1.25 mM HHL. In this experiment, a potassium phosphate buffer solution containing dimethyl sulfoxide at a concentration equal to that of the test solution was used as a control. After incubating the solution at 37°C for one hour, 150 µl of 1 N hydrochloric acid was added to the solution to terminate the reaction. After 1 ml of ethyl acetate was added, the solution was centrifuged at 3000 r.p.m. for 10 minutes. A 0.5 ml aliquot was separated from the ethyl acetate layer and dried at a temperature below 50°C under nitrogen gas streams. The residue was mixed with 5 ml of 1 M aqueous sodium chloride and the mixture was subjected to colorimetry at a wavelength of 228 nm.

[2] = tested on: Hypertensive Reaction by Angiotensin I; experiment: Effect against hypertensive activity of angiotensin I in rats after oral administration; format: in vivo, Male rats (Sprague-Dawley); details: 13.8 µM/kg orally, angiotensin I 300 ng/kg i.v., corrected by angiotensin II reaction; for Percent Inhibition (%) against Hypertensive Reaction by Angiotensin I After 20 min.: 20 min after administration; for Percent Inhibition (%) against Hypertensive Reaction by Angiotensin I After 60 min.: 60 min after administration; for Percent Inhibition (%) against Hypertensive Reaction by Angiotensin I After 120 min.: 120 min after administration
Method: Effect of Present Compounds against Hypertensive Activity of Angiotensin I. Male rats (Sprague-Dawley) weighing 250 g to 350 g which were fed under free access to drinking water and feeds were used as experimental animals. The rats were anesthetized with intraperitoneal administration of pentobarbital sodium (50 mg/kg) on the day before the test day and a polyethylene tube was inserted into each of the femoral artery for measurement of blood pressure and the femoral vein for injection of angiotensin I and II, and then the tubes were fixed. […] Then, 13.8 µM/kg of the compound of this invention was administered orally as an aqueous solution or an aqueous gum arabic suspension, and 20, 60 and 120 minutes after the administration, angiotensin I and II were injected repeatedly to trace hypertensive reactions. In calculating the percent inhibition to the hypertensive activity of angiotensin I, the percent inhibitory value was corrected based on the variation with time in the hypertensive reaction by angiotensin II.

Sequence of Angiotensin I Converting Enzyme (ACE) (P12821 30-1306, species assumed): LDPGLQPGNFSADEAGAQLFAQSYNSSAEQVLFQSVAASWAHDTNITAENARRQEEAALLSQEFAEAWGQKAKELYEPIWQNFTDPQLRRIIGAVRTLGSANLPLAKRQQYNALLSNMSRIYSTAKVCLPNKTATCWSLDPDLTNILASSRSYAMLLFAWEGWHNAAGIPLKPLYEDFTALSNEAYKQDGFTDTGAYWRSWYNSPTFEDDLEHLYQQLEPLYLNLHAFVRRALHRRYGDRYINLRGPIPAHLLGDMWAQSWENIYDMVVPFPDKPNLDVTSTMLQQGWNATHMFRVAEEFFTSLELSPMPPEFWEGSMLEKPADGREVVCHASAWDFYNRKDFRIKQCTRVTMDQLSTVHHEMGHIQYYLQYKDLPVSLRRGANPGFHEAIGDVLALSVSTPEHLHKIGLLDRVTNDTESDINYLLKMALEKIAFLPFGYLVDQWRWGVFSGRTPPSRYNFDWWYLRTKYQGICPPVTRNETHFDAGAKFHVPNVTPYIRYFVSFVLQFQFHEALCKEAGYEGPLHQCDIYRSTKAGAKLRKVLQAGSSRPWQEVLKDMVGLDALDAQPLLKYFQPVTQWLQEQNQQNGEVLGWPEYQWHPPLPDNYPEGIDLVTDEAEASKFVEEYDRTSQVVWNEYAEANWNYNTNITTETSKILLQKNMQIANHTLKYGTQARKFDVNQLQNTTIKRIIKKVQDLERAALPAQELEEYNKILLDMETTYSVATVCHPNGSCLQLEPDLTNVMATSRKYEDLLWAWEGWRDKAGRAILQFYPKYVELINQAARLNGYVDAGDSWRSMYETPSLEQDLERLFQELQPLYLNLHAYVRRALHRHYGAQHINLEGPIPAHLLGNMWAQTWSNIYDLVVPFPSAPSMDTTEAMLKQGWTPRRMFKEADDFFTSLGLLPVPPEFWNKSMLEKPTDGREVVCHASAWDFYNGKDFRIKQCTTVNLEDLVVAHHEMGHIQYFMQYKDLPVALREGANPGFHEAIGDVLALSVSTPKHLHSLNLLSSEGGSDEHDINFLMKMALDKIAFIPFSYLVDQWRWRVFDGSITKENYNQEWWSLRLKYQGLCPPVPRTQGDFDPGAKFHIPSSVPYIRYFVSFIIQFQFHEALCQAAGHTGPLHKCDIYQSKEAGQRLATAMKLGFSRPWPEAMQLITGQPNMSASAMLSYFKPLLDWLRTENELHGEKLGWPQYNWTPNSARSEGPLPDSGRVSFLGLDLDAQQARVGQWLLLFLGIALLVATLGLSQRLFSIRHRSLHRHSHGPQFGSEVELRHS

| SMILES | inhibition at 1 µM [1] [%] | inhibition at 10 µM [1] [%] | Percent Inhibition (%) against Hypertensive Reaction by Angiotensin I After 20 min. [2] [%] | Percent Inhibition (%) against Hypertensive Reaction by Angiotensin I After 60 min. [2] [%] | Percent Inhibition (%) against Hypertensive Reaction by Angiotensin I After 120 min. [2] [%] |
| --- | --- | --- | --- | --- | --- |
| CCOC(=O)C(CCc1ccccc1)N[C@@H](C)C(=O)N(CC(=O)O)C1CCCC1.Cl (stereo partly drawn) [Example 1, N-(1-ethoxycarbonyl-3-phenylpropyl)-L-alanyl-N-cyclopentylglycine hydrochloride] | 84 | 96 | 92 | 82 | 82 |
| CCOC(=O)C(CCc1ccccc1)N[C@@H](C)C(=O)N(CC(=O)O)C1CCCCC1.Cl (stereo partly drawn) [Example 2, N-(1-ethoxycarbonyl-3-phenylpropyl)-L-alanyl-N-cyclohexylglycine hydrochloride] | 64 | 90 | 82 | 82 | 77 |
| CCCCOC(=O)C(CCc1ccccc1)N[C@@H](C)C(=O)N(CC(=O)O)C1CCCCCC1 (stereo partly drawn) [Example 7, N-(1-butoxycarbonyl-3-phenylpropyl)-L-alanyl-N-cycloheptylglycine hydrochloride] | 88 | 98 |  |  |  |
| CCCCOC(=O)[C@H](CCc1ccccc1)N[C@@H](C)C(=O)N(CC(=O)O)C1CCCC1.Cl [Example 12, N-[1-(S)-butoxycarbonyl-3-phenylpropyl]-L-alanyl-N-cyclopentylglycine hydrochloride] |  |  | 95 | 85 | 76 |
| C[C@H](NC(CCc1ccccc1)C(=O)O)C(=O)N(CC(=O)O)C1CCCC1 (stereo partly drawn) [Example 13, N-(1-carboxy-3-phenylpropyl)-L-alanyl-N-cyclopentylglycine] | 93 | 100 | 58 | 64 | 62 |
| CCOC(=O)C(CCc1ccccc1)NC(C)C(=O)N(CC(=O)O)C1CC2CCC1C2 [Example 17, N-[1-(2)-ethoxycarbonyl-3-phenylpropyl]-L-alanyl-N-(2-exonorbornyl)glycine hydrobromide] | 78 | 99 |  |  |  |
| CCOC(=O)C(CCc1ccccc1)N[C@@H](C)C(=O)N(CC(=O)O)C1C2CC3CC(C2)CC1C3 (stereo partly drawn) [Example 19, N-(1-ethoxycarbonyl-3-phenylpropyl)-L-alanyl-N-(2-adamantyl)glycine hydrobromide] | 73 | 93 |  |  |  |

From EP0057998B1, “Alicyclic compounds, their production and use” (Takeda Chemical Industries, Ltd., priority 1981, dated 1982)
